Molecular target: T1, recombinant GST-GK (Homo sapiens, UniProt P35557)
T1 sequence (P35557 1-465): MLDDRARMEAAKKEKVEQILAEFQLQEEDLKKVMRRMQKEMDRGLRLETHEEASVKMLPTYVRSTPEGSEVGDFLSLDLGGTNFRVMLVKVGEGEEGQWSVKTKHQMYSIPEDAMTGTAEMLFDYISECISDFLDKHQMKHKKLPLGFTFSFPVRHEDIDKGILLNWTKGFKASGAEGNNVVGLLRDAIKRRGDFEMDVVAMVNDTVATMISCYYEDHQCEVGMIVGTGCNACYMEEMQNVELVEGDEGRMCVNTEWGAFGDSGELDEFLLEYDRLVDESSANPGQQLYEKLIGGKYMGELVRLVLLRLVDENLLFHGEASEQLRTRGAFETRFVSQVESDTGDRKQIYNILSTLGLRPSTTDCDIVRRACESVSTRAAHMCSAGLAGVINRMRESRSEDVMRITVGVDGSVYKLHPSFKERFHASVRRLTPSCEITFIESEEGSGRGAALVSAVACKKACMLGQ
Assay: activation of recombinant GST-GK in vitro (primary enzyme assay)
Format: biochemical
Details: concentration of compound that produces a 50% increase in the activity of GK; read-out: EC50 in primary enzyme assay
Text: For example, the glucokinase activation in vitro may be determined by measuring the activation of recombinant GST-GK by a compound of the present invention in the absence or the presence of GKRP, a 68,000 Da protein inhibitor of GK. In these assays, formation of glucose-6-phosphate is coupled directly to the formation of thio-NADH. GST-GK catalyzes the reaction of glucose and Mg-ATP to produce glucose-6-phosphate and ADP. Glucose-6-phosphate dehydrogenase (G6PDH) reduces thionicotinamide (thio-NAD) to thio-NADH. The assay measures the formation of thio-NADH at […].
The basic GK assay components are as follows: 25 mM HEPES (pH 7.1), 25 mM KCl, 2.5 mM MgCl2, 1 mM ATP (Sigma A-5394), 1 mM DTT, 1 mM thio-NAD (Sigma T-7375), 80 units/mL G6PDH (Sigma G-5885), 10 mM glucose and 110 nM GST-GK. For assessing reversal of GK inhibition by GKRP, 20 μM Fructose-6-phosphate (F-6-P) and 370 nM recombinant GKRP are added to these assay components. Fructose-1-phosphate (F-1-P) at 1 μM is used as a control in the GK/GKRP assay. F-1-P reverses inhibition of GST-GK by GKRP.
The assay is done in standard, 96-well, round-bottom plates (Corning) and the total assay volume is 25 μL. Test compounds are serially diluted into 100% DMSO and 0.5 μL of diluted compound in 100% DMSO is added to the assay plate. Assay reagents (24.5 μL) are added using a Zymark robotic platform. Buffer, containing HEPES, MgCl2, KCl, thio-NAD, G6PDH, glucose and GST-GK, are added (5 μL) using the Zymark 8-channel hand pipet. For the GK/GKRP assay, GKRP and F-6-P are also included. The reaction is then initiated by adding 19.5 μL of buffer containing HEPES, MgCl2, KCl, DTT and ATP using the Zymark Reagent Addition Station/Reagent Addition Module. The plates are read kinetically over 10 min at 25° C. using a SpectraMax Plus microplate spectrophotometer (Molecular Devices, Sunnyvale, Calif.) to monitor the increase in optical density at 405 nm. The GK activity in wells containing test compounds is compared with activity in DMSO control wells. The concentration of compound that produces a 50% increase in the activity of GK is calculated and expressed as EC50.

| SMILES | EC50 |
| --- | --- |
| COc1ccc2nc(NC(=O)[C@H](CC3CCCC3)c3ccc(S(=O)(=O)N(CCC(=O)O)Cc4ccccc4)cc3)sc2n1 [Example 1, 3-(Benzyl-{4-[(R)-2-cyclopentyl-1-(5-methoxy-thiazolo[5,4-b]pyridin-2-ylcarbamoyl)-ethyl]-benzenesulfonyl}-amino)-propionic acid] | 270 nM |
| COc1ccc2nc(NC(=O)[C@H](CC3CCCC3)c3ccc(S(=O)(=O)N(CCC(=O)O)Cc4cc5ccccc5o4)cc3)sc2n1 [Example 3, 3-(Benzofuran-2-ylmethyl-{4-[(R)-2-cyclopentyl-1-(5-methoxy-thiazolo[5,4-b]pyridin-2-ylcarbamoyl)-ethyl]-benzenesulfonyl}-amino)-propionic acid] | 220 nM |
| COc1ccc2nc(NC(=O)C(CC3CCCC3)c3ccc(S(=O)(=O)N(CC(=O)O)Cc4ccco4)cc3)sc2n1 (stereo not drawn) [Example 4-9, ({4-[2-Cyclopentyl-1-(5-methoxy-thiazolo[5,4-b]pyridin-2-ylcarbamoyl)-ethyl]-benzenesulfonyl}-furan-2-ylmethyl-amino)-acetic acid] | 2400 nM |
| COc1ccc(CN(CCC(=O)O)S(=O)(=O)c2ccc([C@@H](CC3CCCC3)C(=O)Nc3nc4ccc(OC)nc4s3)cc2)cc1 [Example 4-21, 3-[{4-[(R)-2-Cyclopentyl-1-(5-methoxy-thiazolo[5,4-b]pyridin-2-ylcarbamoyl)-ethyl]-benzenesulfonyl}-(4-methoxy-benzyl)-amino]-propionic acid] | 920 nM |
| COCCN(CCC(=O)O)S(=O)(=O)c1ccc(C(CC2CCCC2)C(=O)Nc2nc3cccnc3s2)cc1 (stereo not drawn) [Example 4-41, 3-[{4-[2-Cyclopentyl-1-(thiazolo[5,4-b]pyridin-2-ylcarbamoyl)-ethyl]-benzenesulfonyl}-(2-methoxy-ethyl)-amino]-propionic acid] | 1200 nM |
| COCCN(CCC(=O)O)S(=O)(=O)c1ccc([C@@H](CC2CCCC2)C(=O)Nc2nc3ccc(SC)nc3s2)cc1 [Example 4-42, 3-[{4-[(R)-2-Cyclopentyl-1-(5-methylsulfanyl-thiazolo[5,4-b]pyridin-2-ylcarbamoyl)-ethyl]-benzenesulfonyl}-(2-methoxy-ethyl)-amino]-propionic acid] | 230 nM |

More lines, in order of falling EC50, values ahead:

| EC50 | SMILES |
| --- | --- |
| 50000 nM | COCCN(CCC(=O)O)S(=O)(=O)c1ccc(C(CC2CCCC2)C(=O)Nc2nncs2)cc1 (stereo not drawn) [Example 2, 3-[{4-[2-Cyclopentyl-1-([1,3,4]thiadiazol-2-ylcarbamoyl)-ethyl]-benzene-sulfonyl}-(2-methoxy-ethyl)-amino]-propionic acid] |
| 44000 nM | COCCN(CCC(=O)O)S(=O)(=O)c1ccc([C@H](CC2CCCC2)C(=O)Nc2nc3ccc(Cl)nc3s2)cc1 [Example 4-51, 3-[{4-[(S)-1-(5-Chloro-thiazolo[5,4-b]pyridin-2-ylcarbamoyl)-2-cyclopentyl-ethyl]-benzenesulfonyl}-(2-methoxy-ethyl)-amino]-propionic acid] |
| 6000 nM | COCCNC(=O)c1ccc2nc(NC(=O)[C@@H](CC3CCCC3)c3ccc(S(=O)(=O)N(CCOC)CCC(=O)O)cc3)sc2n1 [Example 4-60, 3-[(4-{(S)-2-Cyclopentyl-1-[5-(2-methoxy-ethylcarbamoyl)-thiazolo[5,4-b]pyridin-2-ylcarbamoyl]-ethyl}-benzenesulfonyl)-(2-methoxy-ethyl)-amino]-propionic acid] |
| 220 nM | COCCOc1ccc2nc(NC(=O)[C@H](CC3CCCC3)c3ccc(S(=O)(=O)N(CCOC)CCC(=O)O)cc3)sc2n1 [Example 4-46, 3-[(4-{(R)-2-Cyclopentyl-1-[5-(2-methoxy-ethoxy)-thiazolo[5,4-b]pyridin-2-ylcarbamoyl]-ethyl}-benzenesulfonyl)-(2-methoxy-ethyl)-amino]-propionic acid] |

Same assay, conditions: concentration of compound that produces a 50% increase in the activity of GK; read-out: EC50 in the in vitro assay measuring the activation of recombinant GST-GK

| EC50 | SMILES |
| --- | --- |
| ~271 nM | COc1ccc2nc(NC(=O)[C@H](CC3CCCC3)c3ccc(S(=O)(=O)N(CCC(=O)O)Cc4ccccc4)cc3)sc2n1 [Example 1, 3-(Benzyl-{4-[(R)-2-cyclopentyl-1-(5-methoxy-thiazolo[5,4-b]pyridin-2-ylcarbamoyl)-ethyl]-benzenesulfonyl}-amino)-propionic acid] |

Test system: DIO mice
Assay: glucokinase activation in vivo: oral glucose tolerance test in DIO mice
Details: oral (po) dosing; different timepoints during the oral glucose tolerance test; statistically significant
Text: The glucokinase activation in vivo may be determined as follows:
Male C57BL mice (Jackson Lab, Bar Harbor, Me.) are housed 2 per cage in a reversed light cycle room (light on from 8:00 p.m. to 8:00 a.m.) and given access to food and water ad libitum. To induce DIO, the mice are given a high fat diet (D12492 with 60% caloric intake from fat, Research Diets, New Brunswick, N.J.) from 4 weeks of age and maintained on the diet before being used. The DIO mice are used at 25 weeks of age. On the day of the study, animals are fasted at 7:30 a.m. Body weight measurement and basal blood sample collection are conducted at 10:00 a.m. Plasma glucose values are then determined. Animals are assigned into five groups (n=7/group) with the means of plasma glucose matched among the groups. At 10:30 a.m. animals are dosed with vehicle (water) or compound in vehicle with a dose volume of 5 ml/kg. The test compound is given at 3, 10, 30, or 100 mg/kg. One hour after vehicle or compound dosing, a blood sample (at 0 min) is taken followed by an oral glucose tolerance test (OGTT) at 1 g/kg (20% glucose in water) and a dose volume of 5 ml/kg. […] Plasma glucose concentrations are determined using a glucose meter (Ascensia Elite, Bayer Corp., Mishawaka, Ind.). […] Plasma insulin levels are determined by Luminex assay using Mouse Endocrine Lincoplex kit (Linco Research, Inc., St. Charles, Mo.). […]

| SMILES | reductions in glucose |
| --- | --- |
| COc1ccc2nc(NC(=O)[C@H](CC3CCCC3)c3ccc(S(=O)(=O)N(CCC(=O)O)Cc4ccccc4)cc3)sc2n1 [Example 1, 3-(Benzyl-{4-[(R)-2-cyclopentyl-1-(5-methoxy-thiazolo[5,4-b]pyridin-2-ylcarbamoyl)-ethyl]-benzenesulfonyl}-amino)-propionic acid] | 38-53% |

— patent publication US8252931B2, “Thiazolo[5,4-B]pyridine glucokinase activators” (Novartis AG, priority 2005, dated 2012)
